# Measured values reported in PMC7517831, “Integrating Machine Learning-Based Virtual Screening With Multiple Protein Structures and Bio-Assay Evaluation for Discovery of Novel GSK3β Inhibitors” (Frontiers in Pharmacology, 2020).
# Molecular target: T1, Glycogen synthase kinase-3β (GSK3β) (Homo sapiens, UniProt P49841)
# T1 construct: gene GSK3B
# Experiment: ADP-Glo luminescent kinase assay, nine-point dose curve
# Format: biochemical
# T1 sequence (P49841 whole entry): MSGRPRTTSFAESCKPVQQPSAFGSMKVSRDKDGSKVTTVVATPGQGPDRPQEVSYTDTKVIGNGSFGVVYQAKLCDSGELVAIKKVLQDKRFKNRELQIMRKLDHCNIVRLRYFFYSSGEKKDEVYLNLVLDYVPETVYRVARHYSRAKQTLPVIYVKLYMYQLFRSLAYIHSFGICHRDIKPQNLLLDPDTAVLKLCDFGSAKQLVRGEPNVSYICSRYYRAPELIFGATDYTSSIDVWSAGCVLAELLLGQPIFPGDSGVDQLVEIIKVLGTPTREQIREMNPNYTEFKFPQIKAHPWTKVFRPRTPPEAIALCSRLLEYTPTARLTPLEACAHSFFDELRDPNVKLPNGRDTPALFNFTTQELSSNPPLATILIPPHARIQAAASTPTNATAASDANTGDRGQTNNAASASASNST
row,Structure (SMILES),IC50
1,CC(C)(C)[C@H]1CCc2[nH]nc(C(=O)NC3CC3)c2C1 [Cpd49],9.34 µM
2,COc1cccc(-n2c(=S)sc3c(=O)[nH]c(SCC(=O)Nc4cccc(Cl)c4)nc32)c1 [Cpd22],15.5 µM
